Source: publication doi:10.1101/2024.07.10.602960v2, “Contrasting Kinetics of Highly Similar Chloroalkane Reductive Dehalogenases” (biorxiv, 2024)
Read-outs that look alike come from different tables or passages of the source.

Assays:
CfrA [1] = target: T1, CfrA (Dehalobacter sp. CF, UniProt K4LFB7); assay: inhibition of chloroform dechlorination, GC-FID, […] min; single TCE concentration fit; type: biochemical; conditions: uncompetitive; chloroform as substrate, about […] TCE, […] Tris-HCl pH […] methyl viologen, Ti(III) citrate, […] °C
T1 construct: expressed from p15TVL-cfrA with pBAD42-BtuCEDFB in E. coli BL21(DE3) suf strain; partially purified; 48 kDa; cobamide and two iron-sulfur clusters
T1 sequence (K4LFB7 43-456 limits assumed): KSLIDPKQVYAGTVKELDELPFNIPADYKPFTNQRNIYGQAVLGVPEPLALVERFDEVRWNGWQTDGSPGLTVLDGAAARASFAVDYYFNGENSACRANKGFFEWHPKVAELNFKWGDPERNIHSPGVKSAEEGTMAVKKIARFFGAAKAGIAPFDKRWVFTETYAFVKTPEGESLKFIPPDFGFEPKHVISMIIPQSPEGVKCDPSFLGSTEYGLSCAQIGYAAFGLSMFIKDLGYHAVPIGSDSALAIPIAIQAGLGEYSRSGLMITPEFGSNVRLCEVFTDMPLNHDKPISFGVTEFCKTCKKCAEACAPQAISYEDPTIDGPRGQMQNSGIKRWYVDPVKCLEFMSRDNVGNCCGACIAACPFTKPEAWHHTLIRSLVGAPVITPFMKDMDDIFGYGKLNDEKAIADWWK

TmrA [2] = target: T2, TmrA (Dehalobacter sp. UNSWDHB, UniProt T0I6H2); assay: as above; type: biochemical; conditions: uncompetitive; chloroform as substrate, about 45 µM TCE, 50 mM Tris-HCl pH 7.5, 1 mM methyl viologen, Ti(III) citrate, 20 °C
T2 construct: expressed from p15TVL-tmrA with pBAD42-BtuCEDFB in E. coli BL21(DE3) suf strain; partially purified; 48 kDa; cobamide and two iron-sulfur clusters
T2 sequence (T0I6H2 51-456): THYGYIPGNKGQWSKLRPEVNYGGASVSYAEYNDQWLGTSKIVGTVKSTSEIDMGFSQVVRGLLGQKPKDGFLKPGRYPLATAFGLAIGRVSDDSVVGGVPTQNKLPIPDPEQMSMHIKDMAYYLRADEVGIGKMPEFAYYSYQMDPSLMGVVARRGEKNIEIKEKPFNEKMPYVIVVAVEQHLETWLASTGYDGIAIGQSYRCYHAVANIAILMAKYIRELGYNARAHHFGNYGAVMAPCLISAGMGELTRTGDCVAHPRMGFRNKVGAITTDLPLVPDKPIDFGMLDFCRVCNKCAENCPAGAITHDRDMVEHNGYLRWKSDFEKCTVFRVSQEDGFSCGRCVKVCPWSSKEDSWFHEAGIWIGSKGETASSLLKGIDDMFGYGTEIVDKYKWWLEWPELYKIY

AcdA [3] = conditions: 50 mM Tris-HCl pH 7.5, 1 mM methyl viologen, 5 mM Ti(III) citrate, anaerobic, 24 °C; substrate inhibition
AcdA [4] = conditions: 50 mM Tris-HCl pH 7.5, 1 mM methyl viologen, 5 mM Ti(III) citrate, anaerobic, 24 °C
AcdA [5] = test system: T3, AcdA; assay: GC-FID product formation in gas-tight syringe, […] min; Michaelis-Menten fit; type: biochemical, Dehalobacter sp.; conditions: 50 mM Tris-HCl pH 7.5, 1 mM methyl viologen, 5 mM Ti(III) citrate, anaerobic, 24 °C
T3 construct: expressed from p15TVL-acdA with pBAD42-BtuCEDFB in E. coli BL21(DE3) suf strain; partially purified; 48 kDa; cobamide and two iron-sulfur clusters

AcdA [6] = target: T3, AcdA; assay: GC-FID, total consumption in gas-tight syringe, […] min; substrate-inhibition Michaelis-Menten fit; type: biochemical, Dehalobacter sp.; conditions: 50 mM Tris-HCl pH 7.5, 1 mM methyl viologen, 5 mM Ti(III) citrate, anaerobic, 24 °C
CfrA [7] = target: T4, CfrA (Dehalobacter sp. CF, UniProt K4LFB7); assay: as above; type: biochemical; conditions: 50 mM Tris-HCl pH 7.5, 1 mM methyl viologen, 5 mM Ti(III) citrate, anaerobic, 24 °C
T4 construct: expressed from p15TVL-cfrA with pBAD42-BtuCEDFB in E. coli BL21(DE3) suf strain; partially purified; 48 kDa; cobamide and two iron-sulfur clusters

AcdA [8] = test system: T3, AcdA; assay: as above; type: biochemical, Dehalobacter sp.; conditions: 50 mM Tris-HCl pH 7.5, 1 mM methyl viologen, 5 mM Ti(III) citrate, anaerobic, 24 °C; remark: listed apart in the source
TmrA [9] = target: T2, TmrA; assay: as above; type: biochemical; conditions: 50 mM Tris-HCl pH 7.5, 1 mM methyl viologen, 5 mM Ti(III) citrate, anaerobic, 24 °C

Q: Which “KI,TCE” value (CfrA [1]) does the source give for `ClC=C(Cl)Cl` [trichloroethene] here?
A: All three enzymes showed better model fits with uncompetitive inhibition

Q: What about the “KI,TCE” value (TmrA [2]) of the same compound?
A: All three enzymes showed better model fits with uncompetitive inhibition

Q: Which results are given for `ClC(Cl)Cl` [chloroform]?
A: KI,CF (AcdA [3]): 0.61 ± 0.24 mM; Km (AcdA [4]): 29 ± 8 µM

Q: `CC(Cl)(Cl)Cl` [1,1,1-trichloroethane] was tested. Which Km (AcdA [5]) did it give?
A: 280 ± 100 µM

Q: With `ClCC(Cl)Cl` [1,1,2-trichloroethane] as the compound, how does the “KI,TCA” value (AcdA [6]) read?
A: 2 ± 0.55 mM

Q: And the “KI,TCA” value (CfrA [7])?
A: 7.1 ± 4.4 mM

Q: And the Km (AcdA [8])?
A: 120 ± 20 µM

Q: And the “KI,TCA” value (TmrA [9])?
A: 6.2 ± 3.7 mM
